Data reported in US9623028B2, “Methods of treating a cancer using substituted pyrrolopyrimidine compounds, compositions thereof” (Signal Pharmaceuticals, LLC, priority 2014, dated 2017).
Where two headings read alike, the source gives them in different places.

Tests used:
breast cancer cell lines = experiment: cells; conditions: for IC50: read-out: Growth Inhibition IC50; for GI50: read-out: Growth inhibition GI50
CLK2 = CLK2 (Homo sapiens (Human), UniProt P49760); experiment: biochemical; conditions: read-out: CLK2 (% Inh.), % inhibition at 3 μM
CLK2, sequence (P49760 whole entry): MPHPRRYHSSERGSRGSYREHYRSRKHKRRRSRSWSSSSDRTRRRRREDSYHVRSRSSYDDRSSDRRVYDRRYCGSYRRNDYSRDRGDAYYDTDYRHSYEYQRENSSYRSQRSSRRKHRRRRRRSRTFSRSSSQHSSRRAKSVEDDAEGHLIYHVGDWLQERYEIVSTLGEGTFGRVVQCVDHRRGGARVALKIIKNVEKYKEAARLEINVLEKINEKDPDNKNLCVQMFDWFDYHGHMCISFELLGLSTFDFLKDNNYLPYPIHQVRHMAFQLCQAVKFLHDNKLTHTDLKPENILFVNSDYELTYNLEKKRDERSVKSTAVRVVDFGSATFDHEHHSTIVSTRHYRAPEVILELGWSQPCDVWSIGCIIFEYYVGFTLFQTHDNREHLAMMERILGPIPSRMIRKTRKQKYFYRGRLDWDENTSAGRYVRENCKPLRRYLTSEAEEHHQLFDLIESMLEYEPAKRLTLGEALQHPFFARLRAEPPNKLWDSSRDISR

[1] = system: non small cell lung cancer (NSCLC) cell lines; experiment: cells
CLK1 = CLK1 (Homo sapiens (Human), UniProt P49759); experiment: biochemical; conditions: read-out: CLK1 (% Inh.), % inhibition at 3 μM
CLK1, sequence (P49759 whole entry): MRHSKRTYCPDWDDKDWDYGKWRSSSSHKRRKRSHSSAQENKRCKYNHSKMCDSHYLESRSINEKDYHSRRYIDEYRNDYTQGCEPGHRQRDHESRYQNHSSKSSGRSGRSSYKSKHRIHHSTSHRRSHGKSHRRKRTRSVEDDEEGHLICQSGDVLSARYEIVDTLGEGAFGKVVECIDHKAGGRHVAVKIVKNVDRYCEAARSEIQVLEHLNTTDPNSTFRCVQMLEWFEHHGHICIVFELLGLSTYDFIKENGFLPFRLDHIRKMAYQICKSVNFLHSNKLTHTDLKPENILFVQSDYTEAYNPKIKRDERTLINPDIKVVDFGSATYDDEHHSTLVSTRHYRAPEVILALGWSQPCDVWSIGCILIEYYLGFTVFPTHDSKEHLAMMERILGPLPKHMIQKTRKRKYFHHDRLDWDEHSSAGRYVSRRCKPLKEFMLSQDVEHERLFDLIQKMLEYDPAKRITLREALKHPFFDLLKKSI

[2] = Homo sapiens, MDA-MB-175-VII, 96 h

## CNC(=O)c1ccc(Nc2nc(OC3CCCC3)c3c(-c4ccc(O)cc4)c[nH]c3n2)c(OC)c1 [Compound 3, 4-((4-(cyclopentyloxy)-5-(4-hydroxyphenyl)-7H-pyrrolo[2,3-d]pyrimidin-2-yl)amino)-3-methoxy-N-methylbenzamide]
Breast cancer cell lines; EFM-192A, 96 h
  IC50: 10000 nM
  GI50: 10000 nM
Breast cancer cell lines; HCC202, 96 h
  IC50: 16000 nM
  GI50: 15000 nM
Breast cancer cell lines; HCC1500, 96 h
  GI50: 53 nM
Breast cancer cell lines; Homo sapiens, AU565, 96 h
  IC50: 1100 nM
  GI50: 426 nM
Breast cancer cell lines; Homo sapiens, BT-20, 96 h
  IC50: 608 nM
  GI50: 289 nM
Breast cancer cell lines; Homo sapiens, BT-474, 96 h
  IC50: 16300 nM
  GI50: 6020 nM
Breast cancer cell lines; Homo sapiens, BT-483, 96 h
  IC50: 10000 nM
  GI50: 704 nM
Breast cancer cell lines; Homo sapiens, BT-549, 96 h
  IC50: 180 nM
  GI50: 85 nM
Breast cancer cell lines; Homo sapiens, CAL-51, 96 h
  IC50: 9 nM
  GI50: 8 nM
Breast cancer cell lines; Homo sapiens, CAL-85-1, 96 h
  IC50: 76 nM
  GI50: 25 nM
Breast cancer cell lines; Homo sapiens, CAL-120, 96 h
  IC50: 10000 nM
  GI50: 10000 nM
Breast cancer cell lines; Homo sapiens, CAMA-1, 96 h
  IC50: 10700 nM
  GI50: 4900 nM
Breast cancer cell lines; Homo sapiens, DU-4475, 96 h
  IC50: 560 nM
  GI50: 82 nM
Breast cancer cell lines; Homo sapiens, EFM-19, 96 h
  IC50: 730 nM
  GI50: 67 nM
Breast cancer cell lines; Homo sapiens, HCC38, 96 h
  IC50: 47 nM
  GI50: 17 nM
Breast cancer cell lines; Homo sapiens, HCC70, 96 h
  IC50: 1950 nM
  GI50: 442 nM
Breast cancer cell lines; Homo sapiens, HCC1143, 96 h
  IC50: 17500 nM
  GI50: 286 nM
Breast cancer cell lines; Homo sapiens, HCC1187, 96 h
  IC50: 881 nM
  GI50: 470 nM
Breast cancer cell lines; Homo sapiens, HCC1428, 96 h
  IC50: 4970 nM
  GI50: 1090 nM
Breast cancer cell lines; Homo sapiens, HCC1569, 96 h
  IC50: 5430 nM
  GI50: 73 nM
Breast cancer cell lines; Homo sapiens, HCC1937, 96 h
  IC50: 10000 nM
  GI50: 7460 nM
Breast cancer cell lines; Homo sapiens, HCC1954, 96 h
  IC50: 482 nM
  GI50: 131 nM
Breast cancer cell lines; Homo sapiens, HCC2157, 96 h
  IC50: 120 nM
  GI50: 24 nM
Breast cancer cell lines; Homo sapiens, Hs-578T, 96 h
  IC50: 183 nM
  GI50: 104 nM
Breast cancer cell lines; Homo sapiens, MCF7, 96 h
  IC50: 170 nM
  GI50: 124 nM
Breast cancer cell lines; Homo sapiens, MCF-10A, 96 h
  IC50: 17400 nM
  GI50: 426 nM
Breast cancer cell lines; Homo sapiens, MCF-12A, 96 h
  IC50: 3150 nM
  GI50: 486 nM
Breast cancer cell lines; Homo sapiens, MDA-MB-134-VI, 96 h
  GI50: 874 nM
Breast cancer cell lines; Homo sapiens, MDA-MB-157, 96 h
  IC50: 695 nM
  GI50: 225 nM
Breast cancer cell lines; [2]
  IC50: 8500 nM
  GI50: 400 nM
Breast cancer cell lines; Homo sapiens, MDA-MB-231, 96 h
  IC50: 38 nM
  GI50: 22 nM
Breast cancer cell lines; Homo sapiens, MDA-MB-361, 96 h
  IC50: 18800 nM
  GI50: 5480 nM
Breast cancer cell lines; Homo sapiens, MDA-MB-415, 96 h
  IC50: 13500 nM
  GI50: 11700 nM
Breast cancer cell lines; Homo sapiens, MDA-MB-436, 96 h
  IC50: 2100 nM
  GI50: 1380 nM
Breast cancer cell lines; Homo sapiens, MDA-MB-453, 96 h
  IC50: 2790 nM
  GI50: 799 nM
Breast cancer cell lines; Homo sapiens, MDA-MB-468, 96 h
  IC50: 32 nM
  GI50: 27 nM
Breast cancer cell lines; Homo sapiens, SK-BR-3, 96 h
  IC50: 3690 nM
  GI50: 1180 nM
Breast cancer cell lines; Homo sapiens, T47D, 96 h
  IC50: 418 nM
  GI50: 162 nM
Breast cancer cell lines; Homo sapiens, UACC-812, 96 h
  IC50: 1790 nM
  GI50: 842 nM
Breast cancer cell lines; Homo sapiens, ZR-75-1, 96 h
  IC50: 6390 nM
  GI50: 1140 nM
Breast cancer cell lines; Homo sapiens, ZR-75-30, 96 h
  IC50: 30000 nM
  GI50: 11600 nM
Breast cancer cell lines; KPL-1, 96 h
  IC50: 693 nM
  GI50: 245 nM
CLK2
  inhibition at 3 µM: 104%
[1]; Homo sapiens, A549, 72 h, read-out: Average IC50 (μM)
  IC50: 0.05 µM
[1]; Homo sapiens, HOP-62, 72 h, read-out: Average IC50 (μM)
  IC50: 0.05 µM
[1]; Homo sapiens, HOP-92, 72 h, read-out: Average IC50 (μM)
  IC50: 1.27 µM
[1]; Homo sapiens, NCI-H441, 72 h, read-out: Average IC50 (μM)
  IC50: 2.1 µM
[1]; Homo sapiens, NCI-H460, 72 h, read-out: Average IC50 (μM)
  IC50: 0.04 µM
[1]; Homo sapiens, NCI-H1299, 72 h, read-out: Average IC50 (μM)
  IC50: 0.36 µM
[1]; Homo sapiens, NCI-H1437, 72 h, read-out: Average IC50 (μM)
  IC50: 0.39 µM
[1]; Homo sapiens, NCI-H1563, 72 h, read-out: Average IC50 (μM)
  IC50: 1.77 µM
[1]; Homo sapiens, NCI-H1650, 72 h, read-out: Average IC50 (μM)
  IC50: 0.62 µM
[1]; Homo sapiens, NCI-H1734, 72 h, read-out: Average IC50 (μM)
  IC50: 0.91 µM
[1]; Homo sapiens, NCI-H1838, 72 h, read-out: Average IC50 (μM)
  IC50: 16.1 µM
[1]; Homo sapiens, NCI-H2228, 72 h, read-out: Average IC50 (μM)
  IC50: 1.58 µM
[1]; Homo sapiens, NCI-H2291, 72 h, read-out: Average IC50 (μM)
  IC50: 16.3 µM
[1]; Homo sapiens, SK-LU-1, 72 h, read-out: Average IC50 (μM)
  IC50: 0.83 µM
[1]; Homo sapiens, SW1573, 72 h, read-out: Average IC50 (μM)
  IC50: 0.96 µM
[1]; read-out: growth inhibition IC50 values
  IC50: ≤ 2 µM
CLK1
  inhibition at 3 µM: 91%
